Source: patent US20250255959A1, “A SYSTEM FOR DRUG-INDUCIBLE EXPRESSION OF A POLYNUCLEOTIDE” (Miltenyi Biotec B.V. & Co. KG, priority 2022, published 2025)

Experiments:
[1] = system: anti-CD20 CAR expression in primary T cells; test: Induction of anti-CD20 CAR expression in transduced primary T cells, flow cytometry; format: cell-based, human; settings: 0-250 nM 4-OHT, 40 h
Method: Lentiviral particles encoding for the different drug-inducible cassettes were manufactured as described in example 1.2. Drug-inducible T cells were generated as described in example 1.3. 1E4 LNGFR positive drug-inducible T cells were seeded in 100 μL TexMACS medium (Miltenyi Biotec) supplemented with IL-7 (Miltenyi Biotec) and IL-15 (Miltenyi Biotec) in a 96-round bottom well plate. Anti-CD20 CAR expression was induced by the addition of different concentrations of 4-OHT (0-250 nM, Sigma-Aldrich) in 100 μL μL TexMACS medium (Miltenyi Biotec) supplemented with IL-7 (Miltenyi Biotec) and IL-15 (Miltenyi Biotec) to each well. Untransduced T cells constitute the negative control. T cells that 10 constitutively express an anti-CD20 CAR (“direct CAR”) represent the positive control. Cells were incubated at 37° C. and 5% CO2. T cells were analyzed 40h post induction for anti-CD20 CAR expression by flow cytometry using anti-CD20 CAR detection reagent-PE. […]
Staining was performed for 10 min at 4° C. followed by two successive washing steps with 200 L PEB (300 g, 5 min). […] Frequency of anti-CD20 CAR+inducible T cells (left graph) and mean fluorescence intensity (MFI) of anti-CD20 CAR expression (right graph) was determined and normalized to the expression of the transduction marker LNGFR. […]

[2] = cited from earlier work

| Compound | anti-CD20 CAR surface expression (MFI) versus drug dose [1] | induction ratios of anti-CD20 CAR expression versus drug dose [1] | steady-state plasma levels ([2]; after 80 days of daily dosing) | average peak plasma concentration ([2]; single oral dose of 20 mg) |
| --- | --- | --- | --- | --- |
| 4-hydroxytamoxifen [4-OHT] | steadily increased with the drug dose | higher drug doses resulting in greater induction ratios |  |  |
| CC/C(=C(\c1ccccc1)c1ccc(OCCN(C)C)cc1)c1ccccc1 [tamoxifen, 2-(4-((1Z)-1,2-diphenyl-1-butenyl)phenoxy)-N,N-dimethylethanamine] |  |  | 71 to 183 ng/mL | 40 ng/mL |
